Data published in patent US20030041357A1, “Herbicide resistant plants” (priority 1996, published 2003).

Assays:
[1] = target: GST-27 (leaf extracts of GST-27 expressing tobacco) (Zea mays, UniProt P46420); test: In vitro HPLC assay of GST activity against herbicide substrates; assay type: biochemical; settings: GST-27 tobacco extracts, 5 mM glutathione, 20 ppm herbicide
wild-type tobacco = test: Rooting assay on MS medium with herbicide; assay type: in vivo, Nicotiana tabacum cv Samsum; settings: for root growth of explants: 3 weeks, 10, 20, 40 ppm acetochlor/metolachlor, 20, 40, 100 ppm alachlor
GST-27 tobacco lines = test: Rooting assay on MS medium with herbicide; assay type: in vivo, Nicotiana tabacum cv Samsum
[2] = test system: transgenic maize seedlings expressing GST-27; test: Acetochlor-treated soil seedling test; assay type: in vivo; settings: soil treated with 2,000 to 8,000 grams per hectare, 7 days
[3] = test system: non-transgenic maize seedlings; test: Acetochlor-treated soil seedling test; assay type: in vivo; settings: soil treated with 2,000 to 8,000 grams per hectare, absence of safener, 7 days
Wild Type tobacco = test: Herbicide trial of DV6/HPPD cross (Example 10); assay type: in vivo; settings: 75 g/ha
DV6/HPPD tobacco = test: Herbicide trial of DV6/HPPD cross (Example 10); assay type: in vivo; settings: 75 g/ha
[4] = test system: transgenic tobacco plants expressing GST-27; test: Pre-emergence glasshouse herbicide trial; assay type: in vivo, Nicotiana tabacum cv Samsum; settings: 300 and 350 g/ha in 5% JF 5969
[5] = test system: transgenic tobacco plants expressing GST-27; test: Post-emergence glasshouse herbicide trial; assay type: in vivo, Nicotiana tabacum cv Samsum; settings: sprayed 16 days after sowing, 5% JF 5969
wild type controls = test: Growth on herbicide-containing tissue culture medium; assay type: in vivo, Tobacco; settings: 0.01 and 0.05 mM glyphosate; 10 and 40 ppm alachlor
[6] = test system: primary transformants from pDV6-Bin; test: as above; assay type: in vivo, Tobacco; settings: a number of transgenics; 0.01 and 0.05 mM glyphosate; 10 and 40 ppm alachlor
[7] = test system: wild type tomato (cv Ailsa Craig); test: PDS inhibitor herbicide tolerance trial; assay type: in vivo
[8] = test system: transgenic tomato over-expressing the Erwinia uredovora crt1 (PDS) gene; test: PDS inhibitor herbicide tolerance trial; assay type: in vivo; settings: for Phytotoxity at 27 PAT: Transgenic tomato
[9] = test system: pDV6 plants expressing both glyphosate resistance genes and GST; test: Pre-em/post-em herbicide treatment of DV6 plants (Table 1); parameters: species or system Tobacco; settings: in vivo
[10] = test system: maize seedlings which contain the PAT gene; test: Glufosinate spray of maize seedlings; assay type: in vivo; settings: commercial mix, about 0.1 to 1% active ingredient
[11] = line 2, pilot experiment, 2 weeks
[12] = line 6, pilot experiment, 2 weeks

Chain of GST-27 (leaf extracts of GST-27 expressing tobacco) (P46420 whole entry): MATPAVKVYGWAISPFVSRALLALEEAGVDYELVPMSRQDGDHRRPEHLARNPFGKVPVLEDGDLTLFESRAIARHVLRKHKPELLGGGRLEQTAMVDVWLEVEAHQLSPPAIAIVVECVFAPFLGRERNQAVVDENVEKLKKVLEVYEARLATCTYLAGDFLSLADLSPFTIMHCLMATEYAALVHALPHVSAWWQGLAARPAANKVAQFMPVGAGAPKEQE

SMILES: CCOCN(C(=O)CCl)c1c(C)cccc1CC [Acetochlor, acetochlor]
- GST activity against herbicide substrate (HPLC) [1]: lowest activity
- root growth of explants (wild-type tobacco): do not show any rooting
- root growth of explants (GST-27 tobacco lines; GST-27 lines 6 and 17, 3 weeks): produce few roots at 10 and 20 ppm
- root growth of explants (GST-27 tobacco lines; lines 5 and 12, 3 weeks): not as resistant
- seedling damage [2]: little, if any damage
- seedling damage [3]: very substantial damage
- phytotoxicity score, 21 DAT (Wild Type tobacco; Wild Type Rep a): 40
- phytotoxicity score, 21 DAT (Wild Type tobacco; Wild type Rep b): 100
- phytotoxicity score, 21 DAT (DV6/HPPD tobacco; DV6/HPPD Rep a): 0
- phytotoxicity score, 21 DAT (DV6/HPPD tobacco; DV6/HPPD Rep b): 0

SMILES: CCc1cccc(CC)c1N(COC)C(=O)CCl [Alachlor, alachlor]
- root growth of explants (wild-type tobacco): does not produce any root
- concentration from which an effect of the herbicide is observable (wild-type tobacco; pilot experiment, 2 weeks): ≥ 1 ppm
- concentration from which plants do not produce new leaves (wild-type tobacco; pilot experiment, 2 weeks): ≥ 10 ppm
- concentration up to which roots are produced (wild-type tobacco; pilot experiment, 2 weeks): up to 5 ppm
- concentration up to which roots are produced (GST-27 tobacco lines; GST-27 lines 6 and 17, 3 weeks): ≤ 40 ppm
- root growth of explants (GST-27 tobacco lines; Lines 9 and 16, 20 and 40 ppm, 3 weeks): do not produce any roots
- concentration from which an effect of the herbicide is observable (GST-27 tobacco lines; [11]): ≥ 20 ppm
- concentration up to which roots are produced (GST-27 tobacco lines; [11]): up to 10 ppm
- concentration from which an effect of the herbicide is observable (GST-27 tobacco lines; [12]): ≥ 40 ppm
- concentration up to which roots are produced (GST-27 tobacco lines; [12]): ≤ 20 ppm
- resistance to pre-emergent application (germination scored after 3 weeks) [4]: resistant
- resistance to post-emergent spray (damage scored after 3 weeks) [5]: resistant
- growth on tissue culture medium (wild type controls): fail to
- growth on tissue culture medium [6]: grow successfully

SMILES: CCC1CN(c2cccc(C(F)(F)F)c2)C(=O)C1C(=O)NC (stereo not shown) [Compound III]
- Phytotoxity at 27 PAT ([7]; 37 g/ha): 0%
- Phytotoxity at 27 PAT ([7]; 111 g/ha): 8.3%
- Phytotoxity at 27 PAT ([7]; 333 g/ha): 56.7%
- Phytotoxity at 27 PAT ([7]; 1000 g/ha): 100%
- Phytotoxity at 27 PAT ([8]; 111 g/ha): 0%
- Phytotoxity at 27 PAT ([8]; 333 g/ha): 0%
- Phytotoxity at 27 PAT ([8]; 1000 g/ha): 10%
- Phytotoxity at 27 PAT ([8]; 3000 g/ha): 3.3%

SMILES: COc1nn(-c2cccc(C(F)(F)F)c2)/c(=N\C(=O)OC(C)C)s1 [Compound II]
- Phytotoxity at 27 PAT ([7]; 37 g/ha): 3.3%
- Phytotoxity at 27 PAT ([7]; 111 g/ha): 13.3%
- Phytotoxity at 27 PAT ([7]; 333 g/ha): 20%
- Phytotoxity at 27 PAT ([7]; 1000 g/ha): 100%
- Phytotoxity at 27 PAT ([8]; 111 g/ha): 3.3%
- Phytotoxity at 27 PAT ([8]; 333 g/ha): 0%
- Phytotoxity at 27 PAT ([8]; 1000 g/ha): 3.3%
- Phytotoxity at 27 PAT ([8]; 3000 g/ha): 0%

SMILES: O=C1C(Cl)C(CCl)CN1c1cccc(C(F)(F)F)c1 (stereo not shown) [Compound I]
- Phytotoxity at 27 PAT ([7]; 333 g/ha): 0%
- Phytotoxity at 27 PAT ([7]; 1000 g/ha): 23.3%
- Phytotoxity at 27 PAT ([7]; 3000 g/ha): 100%
- Phytotoxity at 27 PAT ([7]; 9000 g/ha): 100%
- Phytotoxity at 27 PAT ([8]; 333 g/ha): 0%
- Phytotoxity at 27 PAT ([8]; 1000 g/ha): 0%
- Phytotoxity at 27 PAT ([8]; 3000 g/ha): 0%
- Phytotoxity at 27 PAT ([8]; 9000 g/ha): 0%
- rate to which transgenic tomatoes are highly tolerant ([8]; transgenic tomatoes): up to 9 kg/ha

SMILES: CCCN(CCC)C(=O)SCC [EPTC]
- % Phytotoxicity (mean, 21 DAT) [9]: 0%

SMILES: CCc1cccc(C)c1N(C(=O)CCl)C(C)COC (stereo not shown) [Metolachlor, metolachlor]
- GST activity against herbicide substrate (HPLC) [1]: lowest activity
- root growth of explants (wild-type tobacco): produces very few tiny roots at 10 and 20 ppm
- rooting concentration limit (GST-27 tobacco lines; GST-27 line 17, 3 weeks): more than 40 ppm
- root growth of explants (GST-27 tobacco lines; GST-27 lines 6 and 17, 3 weeks): produce short roots

SMILES: CP(=O)(O)CCC(N)C(=O)O (stereo not shown) [glufosinate]
- resistance of seedlings to spray [10]: either completely resistant to glufosinate, or are relatively tolerant of the herbicide
